Among the test systems are SK-MEL-2 melanoma; T-47D breast; HOP-92 NSCLC; K-562 leukemia; OVCAR-3 ovarian; A549 NSCLC; 786-0 renal.
What all share (assay): NCI anticancer screen, dose series, 48 h

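In this assay, cells in 96-well plates receive the compound at five concentrations for 48 hours. Endpoints are linearly interpolated between the surrounding concentrations. GI50 marks 50% less growth. At the TGI there is no net growth.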

With `COC(=O)/C=C1\S/C(=N\NC(=O)c2cc3ccc2/C=C\c2ccc(cc2)/C=C\3)N(c2ccccc2)C1=O`, the GI50 with SK-MEL-2 melanoma was 2.65 µM; with T-47D breast, 1.54 µM; in the assay on HOP-92 NSCLC, 1.91 µM; in the assay with K-562 leukemia, 3.15 µM; with OVCAR-3 ovarian, 1.8 µM; in the assay on A549 NSCLC it was 2.83 µM. Also, the GI50 in the assay on 786-0 renal is 2 µM. Also, the TGI in the assay on SK-MEL-2 melanoma was 7.76 µM; in the assay on T-47D breast, 3.65 µM; in the assay with HOP-92 NSCLC, 9.14 µM; in the assay with K-562 leukemia it was above 100 µM; in the assay with OVCAR-3 ovarian it was 3.61 µM; in the assay on A549 NSCLC, 8.37 µM. This compound also had a TGI in the assay on 786-0 renal of 4.38 µM.

With `CCN1/C(=C\c2cc[n+](CC)c3ccccc23)C=Cc2ccccc21`, the GI50 in the assay on SK-MEL-2 melanoma is 0.231 µM; with T-47D breast, 0.0403 µM; in the assay with HOP-92 NSCLC it was 0.161 µM; in the assay on K-562 leukemia it was 0.0477 µM; in the assay on OVCAR-3 ovarian, 0.118 µM; in the assay with A549 NSCLC it was 0.215 µM. In the assay on 786-0 renal, the GI50 was 0.465 µM. The TGI amounted to 10.9 µM in the assay with SK-MEL-2 melanoma; 1.75 µM in the assay with T-47D breast; 0.937 µM in the assay with HOP-92 NSCLC; 12.8 µM with K-562 leukemia; 1.08 µM in the assay on OVCAR-3 ovarian; 18.1 µM in the assay with A549 NSCLC. For the same compound, the TGI in the assay with 786-0 renal turned out to be 12 µM.

As for `COc1ccc2c(c1)sc1nc(-c3ccccc3)c(-c3cccc4ccccc34)n12`, the GI50 in the assay on SK-MEL-2 melanoma was 1.67 µM; in the assay on T-47D breast, 4.38 µM; with K-562 leukemia, 0.328 µM; with OVCAR-3 ovarian, 0.35 µM; with A549 NSCLC, 0.816 µM; in the assay on 786-0 renal, 0.848 µM. For the same compound, the TGI in the assay on SK-MEL-2 melanoma was above 100 µM; in the assay with T-47D breast it was above 62.2 µM; with K-562 leukemia it was above 100 µM; with OVCAR-3 ovarian, 1.46 µM; in the assay with A549 NSCLC, above 100 µM; with 786-0 renal, above 100 µM.

For `CC(C)=CCC\C(C)=C/C=C/C(C)=C\C=C\C(C)=C/C=C/C=C(C)\C=C\C=C(C)/C=C/C=C(/C)CCC=C(C)C`, the TGI in the assay on SK-MEL-2 melanoma, in the assay on HOP-92 NSCLC, with K-562 leukemia, with OVCAR-3 ovarian, in the assay with A549 NSCLC and in the assay on 786-0 renal was above 100 µM in each case.

For `O=C1NC(=NCCc2cccc(F)c2)S/C1=C\c1ccc2ncccc2c1`, the GI50 in the assay with SK-MEL-2 melanoma was 15.8 µM; in the assay with T-47D breast it was 6.89 µM; in the assay on HOP-92 NSCLC, above 25 µM; in the assay on K-562 leukemia, 1.01 µM; in the assay with OVCAR-3 ovarian it was 1.76 µM; in the assay with A549 NSCLC, 1.55 µM. Also, in the assay on 786-0 renal, the GI50 is 7.15 µM. In addition, the TGI in the assay with SK-MEL-2 melanoma, in the assay with T-47D breast, with HOP-92 NSCLC, in the assay with K-562 leukemia, in the assay on OVCAR-3 ovarian and in the assay with A549 NSCLC was above 25 µM throughout. In the assay with 786-0 renal, the TGI was above 25 µM.

For the compound `CN1CCN(C2=NCCO2)CC1`, the TGI in the assay with SK-MEL-2 melanoma, in the assay on T-47D breast, with K-562 leukemia, with OVCAR-3 ovarian, with A549 NSCLC and in the assay with 786-0 renal was above 100 µM each time.

On to `COc1cccc(-c2cc(-c3cccc(NS(C)(=O)=O)c3)nc(N)c2C#N)c1O`, for which the GI50 with SK-MEL-2 melanoma was 0.132 µM; with T-47D breast, 0.317 µM; in the assay on HOP-92 NSCLC, 3.19 µM; in the assay on K-562 leukemia, 0.0508 µM; with A549 NSCLC, 0.293 µM; in the assay on 786-0 renal, 0.375 µM. Further, the TGI with SK-MEL-2 melanoma is above 100 µM; in the assay with T-47D breast, 58.6 µM; in the assay on HOP-92 NSCLC it was above 31.5 µM; with K-562 leukemia, above 100 µM; in the assay on A549 NSCLC, above 100 µM; with 786-0 renal, above 100 µM.

For `Cc1cc(-c2nc(C(=O)Nc3cc4oc(N5CCOCC5)nc4nc3N3CC[C@@H](O)C3)co2)ccn1`, the GI50 in the assay with SK-MEL-2 melanoma was 23 µM; with T-47D breast it was 22.1 µM; with K-562 leukemia, 41.2 µM; with OVCAR-3 ovarian it was 27 µM; in the assay on A549 NSCLC it was 28.9 µM; in the assay on 786-0 renal, 68.7 µM. Moreover, the TGI in the assay on SK-MEL-2 melanoma was 99.8 µM; in the assay with T-47D breast, above 100 µM; with K-562 leukemia, above 100 µM; in the assay with OVCAR-3 ovarian it was above 100 µM; in the assay with A549 NSCLC it was above 100 µM; in the assay with 786-0 renal, above 100 µM.

Turning to `COc1cnc2c(c1)C(=O)c1c-2n(CCCN2CCOCC2)c(=O)c2cc(F)ccc12`, the GI50 was 1.67 µM in the assay with SK-MEL-2 melanoma; 0.118 µM with T-47D breast; 0.858 µM with HOP-92 NSCLC; 0.32 µM in the assay with K-562 leukemia; 0.25 µM with OVCAR-3 ovarian; 0.254 µM in the assay on 786-0 renal. The TGI with SK-MEL-2 melanoma is 5.18 µM; in the assay with T-47D breast, 0.69 µM; in the assay on HOP-92 NSCLC it was 6.86 µM; in the assay on K-562 leukemia it was above 100 µM; with OVCAR-3 ovarian, 2.37 µM; in the assay with 786-0 renal, 1.2 µM.

Take `COc1cc2c(c(OC)c1OC)-c1ccc(NNC(N)=S)c(=O)cc1[C@@H](NC(C)=O)CC2`: the TGI in the assay with SK-MEL-2 melanoma is above 100 µM; with T-47D breast it was above 100 µM; in the assay with K-562 leukemia, above 100 µM; in the assay on OVCAR-3 ovarian, 0.623 µM; in the assay on A549 NSCLC, above 100 µM; in the assay on 786-0 renal, above 100 µM. Also, the GI50 in the assay with T-47D breast is above 100 µM; with K-562 leukemia, 0.348 µM; in the assay with OVCAR-3 ovarian it was 0.238 µM; in the assay with A549 NSCLC it was 3.12 µM; in the assay on 786-0 renal it was 0.867 µM.

On to `NS(=O)(=O)OC[C@@H]1C[C@@H](n2ccc3c(NC4CCc5ccccc54)ncnc32)C[C@@H]1O` (stereo partly specified), for which the GI50 was 0.74 µM with SK-MEL-2 melanoma; 0.0607 µM with T-47D breast; 0.405 µM in the assay on K-562 leukemia; 2.93 µM with OVCAR-3 ovarian; 0.797 µM with A549 NSCLC; 0.671 µM with 786-0 renal. The TGI in the assay with SK-MEL-2 melanoma came out at 21 µM; in the assay with T-47D breast, 63.6 µM; in the assay on K-562 leukemia it was 32.3 µM; in the assay with OVCAR-3 ovarian it was 33.7 µM; with A549 NSCLC it was 47.7 µM; with 786-0 renal, 29.7 µM.

As to `O=C(CCNC12CC3CC(CC(C3)C1)C2)c1ccccc1`, the TGI was 30 µM with SK-MEL-2 melanoma; 55.4 µM in the assay with T-47D breast; 64.2 µM in the assay with HOP-92 NSCLC; 36.5 µM with K-562 leukemia; above 100 µM in the assay with A549 NSCLC; 31.6 µM with 786-0 renal.
